Patent US20220370471A1, “COMPOSITION AND METHOD FOR TREATMENT OF HIPPOCAMPAL SYNAPSE DYSFUNCTION AND COGNITIVE DEFICITS IN ALZHEIMER'S DISEASE” (BOARD OF REGENTS, THE UNIVERSITY OF TEXAS SYSTEM, priority 2019, published 2022)

Experiments:
Ghsr1α = target: T1, Ghsr1α (Mus musculus, UniProt Q99P50, INS247CCPGCC); experiment: FlAsH-based FRET assay of Ghsr1α activity in HEK 293T cells; format: cell-based; conditions: 50 μM; Ghsr1α FlAsH/ECFP-expressing HEK 293T cells
T1 construct: Mouse full length Ghsr1α cDNA (NCBI Gene ID: 208188) was purchased from OriGene (MR226073); expressed in transfected cells; host or cells: HEK 293T
From the text: FlAsH-based FRET was created by structural dynamics of Ghsr1α with FlAsH in the intercellular loop 3 and enhanced cyan fluorescent protein (ECFP) in the C-terminus (Ghsr1α^FlAsH/ECFP).
FlAsH-based FRET. […] The CCPGCC motif which has higher binding affinity for FlAsH was inserted in the third intracellular loop between Va1247 and Gly248 of Ghsr1α cDNA or between Thr245 and Gly246 of Drd1 cDNA. […] Fluorescence signals were monitored on microplate reader (BioTek Cytation 5) before and after the treatments. […] Area scanning read mode was used to correct artificial inaccuracies. The FRET ratio (FFlAsH/FECFP) was calculated according to equation as previously reported (69):
The terms a and b are correction factors for the two leakages mentioned above. a is the ratio of the direct emission of donor, ECFP at 535 nm, to its emission at 475 nm when excited at 425 nm which was calculated with cells transfected with pcDNA3-Ghsr1α^FlAsH/ECFP or pcDNA3-Drd1^FlAsH/ECFP only. b is the ratio of the direct emission of FlAsH at 535 nm when excited at 425 nm to its emission at 535 nm when excited at 500 nm which was calculated with FlAsH labeled untransfected cells.

Ghsr1α/Drd1 complex = target: T2, Ghsr1α/Drd1 complex (Mus musculus, UniProt Q61616+Q99P50); experiment: Duolink PLA of Ghsr1α/Drd1 complex in cultured hippocampal neurons; format: cell-based; conditions: oligomeric Aβ42 1 μM, 24 hours; 1.5 μM MK0677, 2 μM SKF81297, or in combination
T2 construct: endogenous in cells; host or cells: primary mouse hippocampal neurons (P0-1, DIV14)
From the text: (§1) Duolink In Situ Proximity Ligation Assay (PLA). […] PLA analysis was referred to previous report (66 67). NIH Image J was used for PLA signal quantification.
(§2) Agonist treatment on primary cultured neurons. […] The exposure was followed by immunostaining to examine the effects of Ghsr1α/Drd1 co-activation on Aβ induced synaptic loss or Ghsr1α/Drd1, Aβ/Ghsr1α interaction as described in previous sections.

Aβ/Ghsr1α complex = target: T3, Aβ/Ghsr1α complex (Mus musculus, UniProt Q99P50); experiment: Duolink PLA of Aβ/Ghsr1α complex in cultured hippocampal neurons; format: cell-based; conditions: oligomeric Aβ42 1 μM, 24 hours; 1.5 μM MK0677, 2 μM SKF81297, or in combination
T3 construct: endogenous in cells; host or cells: primary mouse hippocampal neurons; Aβ42 peptide purchased (GenicBio, A-43-T-1000)
From the text: as §1, §2

[1] = Mouse body weight during treatment; format: in vivo; conditions: MK0677 1.5 mg/kg, daily i.p.
From the text: Agonist treatment on mice.
Mice and agonist treatment.

patients with AD = conditions: clinical trial; cited from earlier work
5×FAD mice [2] = conditions: recent study, higher dose of MK0677; cited from earlier work
5×FAD mice [3] = experiment: Morris water maze test; conditions: MK0677 1.5 mg/kg, daily i.p., one month
Experimental: Mice and agonist treatment. […] Mice were used in pairs of age-matched non-transgenic mice (non-TG). Genotypes of animals were confirmed using PCR and/or amyloid plaque staining. The number of mice used was determined by previous data and calculations to ensure that the minimal number of mice as required was used in these experiments. […] Mouse body weight was recorded every five days until euthanasia. After the 1-month treatment, the mice were subjected to the Morris water maze behavioral test and then euthanized for tissue collection following IACUC-approved procedures.
Mouse behavioral test. The Morris water maze test was performed as previously described in order to test changes in mouse spatial learning and memory [3, 50]. Mice were randomly grouped by gender, genotypes and treatments (which the experimenter was blind to) and then transferred to the testing environment at least 0.5 hours before tests. During the test, mice were trained to find a hidden platform (20 cm diameter) in an open swimming pool (200 cm diameter) filled with 21° C. water (non-toxic white dye was used to hide the platform). Four trials were performed each day for 12 days. Each trial started at a different position (NW, N, E, SE) while the platform was kept in the same location (SW). […] Probe results were analyzed using the platform location crossed frequency value.

T1 sequence (Q99P50 with tags, fused parts or gaps INS247CCPGCC): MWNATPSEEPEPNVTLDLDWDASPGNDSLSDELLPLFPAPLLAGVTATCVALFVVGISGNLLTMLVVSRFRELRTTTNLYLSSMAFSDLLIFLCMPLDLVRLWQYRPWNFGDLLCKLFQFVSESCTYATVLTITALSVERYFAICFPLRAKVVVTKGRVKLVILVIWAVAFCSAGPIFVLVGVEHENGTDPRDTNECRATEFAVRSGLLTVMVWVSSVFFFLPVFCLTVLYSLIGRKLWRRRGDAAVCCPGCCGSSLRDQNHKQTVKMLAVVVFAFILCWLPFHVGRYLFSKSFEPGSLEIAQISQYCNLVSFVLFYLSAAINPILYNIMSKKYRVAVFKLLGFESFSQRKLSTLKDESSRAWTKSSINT
T3 sequence (Q99P50 whole entry): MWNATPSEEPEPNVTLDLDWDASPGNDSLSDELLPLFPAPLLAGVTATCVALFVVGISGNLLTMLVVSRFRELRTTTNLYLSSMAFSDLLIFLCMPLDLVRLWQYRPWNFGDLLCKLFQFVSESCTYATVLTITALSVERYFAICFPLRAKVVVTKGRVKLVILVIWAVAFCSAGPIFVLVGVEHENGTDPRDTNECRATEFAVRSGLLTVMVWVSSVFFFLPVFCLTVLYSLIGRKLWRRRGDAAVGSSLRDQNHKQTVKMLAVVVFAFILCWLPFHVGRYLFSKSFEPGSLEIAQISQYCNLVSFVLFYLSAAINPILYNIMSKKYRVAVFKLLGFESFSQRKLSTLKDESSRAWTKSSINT
T3 sequence (Q61616 whole entry, further chain): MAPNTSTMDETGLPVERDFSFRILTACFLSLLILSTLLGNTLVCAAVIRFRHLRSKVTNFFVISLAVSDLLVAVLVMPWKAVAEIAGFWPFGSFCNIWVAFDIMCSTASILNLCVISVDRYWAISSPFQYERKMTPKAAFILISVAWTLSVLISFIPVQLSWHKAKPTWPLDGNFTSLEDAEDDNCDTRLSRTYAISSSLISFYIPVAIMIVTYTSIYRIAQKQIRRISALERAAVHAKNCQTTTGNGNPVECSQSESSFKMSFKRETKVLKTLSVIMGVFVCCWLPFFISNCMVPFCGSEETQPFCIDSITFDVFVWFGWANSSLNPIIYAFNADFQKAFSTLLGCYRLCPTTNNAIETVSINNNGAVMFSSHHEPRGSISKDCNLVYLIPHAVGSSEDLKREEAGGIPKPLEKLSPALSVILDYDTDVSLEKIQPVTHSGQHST
T2 sequence (Q99P50 whole entry): as the sequence (Q99P50 whole entry) above
T2 sequence (Q61616 whole entry): as the sequence (Q61616 whole entry, further chain) above

For `CC(C)(N)C(=O)N[C@H](COCc1ccccc1)C(=O)N1CCC2(CC1)CN(S(C)(=O)=O)c1ccccc12` [MK0677], the “FRET ratio (FFlAsH/FECFP), agonist-induced Ghsr1α activation” value (Ghsr1α) was “induced a decrease in FRET ratio”, the Ghsr1α/Drd1 complex formation (Ghsr1α/Drd1 complex) was “not the agonists alone” and the Aβ/Ghsr1α complex formation (Aβ/Ghsr1α complex) was “not MK0677 or SKF81297 alone”. The mouse body weight [1] was “did not affect mouse body weight”, the “clinical benefits in patients with AD” value (patients with AD) was “failed to show clinical benefits” and the “neocortical Aβ plaques in young 5×FAD mice” value (5×FAD mice [2]) was “lowered neocortical Aβ plaques”. For the same molecule, the “spatial reference learning and memory (genotypic cognitive impairment)” value (5×FAD mice [3]) was “failed to show any protective effect”.
